Columns and labels:
[1] = tested on: GSH in rabbit corneal epithelial cells; test: Glutathione (GSH) level (OPA probe) in NaCl-treated corneal epithelial cells; assay type: cell-based; conditions: 10 μM PDSP, isotonic medium, compared to untreated
Procedure: We therefore examined the effects of PDSP on the intracellular ROS and GSH levels in NaCl-treated (HOP) rabbit corneal epithelial cells. Briefly, rabbit corneal epithelial cells were pretreated with 10 μM PDSP or a negative control peptide (ConP) for 20 hours, followed by treatment with NaCl to induce hyperosmotic stress. After NaCl treatment for another 24 hours, cells were assessed for ROS using a 2′,7′-dichlorodihydrofluorescein diacetate (H2DCFDA) probe, which is an ROS indicator dye. H2DCFDA can diffuse into cells, where its acetate ester linkages are cleaved by intracellular esterases and be oxidized by ROS, which converts the nonfluorescent dichlorodihydrofluorescein diacetate (H2DCFDA) to highly fluorescent […] (DCF).
Limbal stem cells were isolated from 6-month-old New Zealand white rabbits and continuously cultivated for 14 days by DMEM/F-12 basal medium based cell-suspension culture to achieve corneal-liked epithelial cell differentiation as previously described (Ho et al., 2013). […]
The GSH levels were quantified using a Glutathione Assay Kit (BioVision Research Products, Mountain View, Calif.) according to the manufacturer's recommendations. […] The fluorescence was read at 340 nm for excitation and 420 nm for emission on a SPECTRAmax GEMINI XS fluorescence microplate spectrophotometer (Molecular Devices, Sunnyvale, Calif.).

TNF-α mRNA = test: Ocular TNF-α mRNA by quantitative real-time PCR in CEC dry eye mice; assay type: in vivo, C57BL6 mice; conditions: CEC 14 days, then topical PDSP for 5 days
Procedure: (§1) Dry eye is associated with abnormalities in the pre-corneal tear film and subsequent inflammatory changes in the entire ocular surface including the adnexa, conjunctiva and cornea. (see, Hessen et al., “Dry eye: An Inflammatory Ocular Disease,” J. Ophthalmic Vis. Res., 2014, 9(2): 240-250). Therefore, the effects of PDSPs in corneal inflammatory responses were next examined. Briefly, C57BL6 mice were housed in CEC for 14 days (Day 0) and then treatment with PDSP or vehicle were performed for additional 5 days (Day 5). Then, mRNA levels for inflammatory factors were evaluated by quantitative real-time PCR.
(§2) The total RNA was extracted from cells using TRIzol (Invitrogen) and treated with RNase free DNase I (Qiagen, Santa Clarita, CA) to remove genomic DNA and then purified with an RNA purification kit (Dynabeads; Invitrogen). […] Quantitative real-time PCR was performed in a GeneAmp 7700 sequence detection system (Applied Biosystems, Foster City, CA). […] All determinations were measured in triplicate. The cycle threshold (Ct) values corresponded to the PCR cycle number at which fluorescence emission in real time reaches a threshold above the base-line emission were analyzed using GeneAmp 7700 SDS software. The Ct value of the PCR product of interest and a control mRNA (GAPDH) were then used to calculate relative quantities of mRNA between samples.

[2] = tested on: desiccating stress-induced dry eye; test: Corneal fluorescein staining in desiccating stress-induced dry eye (CEC) mice; assay type: in vivo, C57BL/6 mice; conditions: CEC 14 days, then peptide for 3 days (FIG. 11)
IL-1β mRNA = test: Ocular IL-1β mRNA by quantitative real-time PCR in CEC dry eye mice; assay type: in vivo, C57BL6 mice; conditions: CEC 14 days, then topical PDSP for 5 days
Procedure: as §1, §2

[3] = tested on: intracellular ROS in rabbit corneal epithelial cells; test: Intracellular ROS (H2DCFDA probe) in NaCl-treated corneal epithelial cells; assay type: cell-based
Procedure: We therefore examined the effects of PDSP on the intracellular ROS and GSH levels in NaCl-treated (HOP) rabbit corneal epithelial cells. Briefly, rabbit corneal epithelial cells were pretreated with 10 μM PDSP or a negative control peptide (ConP) for 20 hours, followed by treatment with NaCl to induce hyperosmotic stress. After NaCl treatment for another 24 hours, cells were assessed for ROS using a 2′,7′-dichlorodihydrofluorescein diacetate (H2DCFDA) probe, which is an ROS indicator dye. […]
Intracellular ROS generation was assayed using 2′,7′-dichlorodihydrofluorescein diacetate (H2DCFDA; Molecular Probes, Eugene, Oreg.) which, when oxidized by ROS, releases the green fluorescent compound 2′,7′-dichlorofluorescein (DCF). […] Fluorescence (excitation, 488 nm; emission, 520 nm) was measured with a Spectra MAX GEMINI Reader (Molecular Devices, Sunnyvale, Calif., USA). The background fluorescence from control wells without the addition of H2DCFDA was subtracted from the experimental readings.
To investigate the effect of hyperosmotic stress on the intracellular ROS formation, rabbit corneal epithelial cells were cultured in a hyperosmotic medium (463 mOsM) by adding 90 mM NaCl for 24 hours. The intracellular ROS levels were detected by H2DCFDA probe and measured the formation of DCF-fluorescence by spectrofluorometer.

## PDSP: 29mer, residues 93-121 of human PEDF: SLGAEQRTESIIHRALYYDLISSPDIHGT (SEQ ID NO:4) (listed as Homo sapiens)
[1]
  GSH level without HOP stress (peptide alone): slight increase
TNF-α mRNA
  repression of ocular TNF-α mRNA expression compared to vehicle-treated group: 1.9 fold
[2]
  corneal damage by corneal fluorescein staining, human vs mouse 29mer: protection from corneal surface damages
[2]; listed as human PDSP
  corneal damage by corneal fluorescein staining, human vs mouse 29mer: capable of restore the ocular surface damages
IL-1β mRNA
  repression of ocular IL-1β mRNA expression compared to vehicle-treated group: 2.4 fold
[3]; 10 μM PDSP, isotonic medium, compared to untreated
  DCF fluorescence without HOP (peptide alone): did not increase DCF fluorescence
[3]; 10 μM peptide pretreatment 20 hours, then hyperosmotic medium (463 mOsM, 90 mM NaCl) 24 hours
  suppression of DCF-fluorescence level compared to cells treated with NaCl alone: 1.3 fold

Source: patent US11760784B2, “Compositions comprising PEDF-derived short peptides and uses thereof” (BRIM Biotechnology, Inc., priority 2016, dated 2023)
